This passage reports IC50 and GI50 results from patent publication US20170107207A1, “AMINOPYRAZOLONE DERIVATIVE” (DAIICHI SANKYO COMPANY, LIMITED, priority 2014, published 2017).

Assay [1] has as its target T1, TIP48/TIP49 complex (Homo sapiens, UniProt Q9Y230+Q9Y265).
T1 construct: made in house; host or cells: E. coli
Kind of assay: ATPase assay of TIP48/TIP49 complex (ADP-Glo). Conditions: concentration at which the ATPase activity was inhibited by 50%. The assay is classed as biochemical. In a few lines: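 Compound was tested over 10 four-fold concentrations, 200 μM down to 0.0007 μM at 2% DMSO, against E. coli-derived human rTIP48/rTIP49 for 1.5 h at room temperature, pH 7.5 with ATP. ATP hydrolysis was read as ADP-Glo luminescence, normalised to complex-only and no-complex wells, then fitted to dose-response curves.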
(In ADP-Glo the light output rises with the ADP produced.)

Assay [2] concerns human lymphoma cell line RAMOS cells. In words: Cell growth inhibition test using RAMOS cell, ATP assay (CellTiter-Glo). The assay is classed as cell-based. Conditions: Homo sapiens, Ramos, 72 h, cultured 3 days, 50% growth inhibition concentration. The method in brief:
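RAMOS cells seeded at 4000 cells/well with compound and cultured 3 days at 37° C, 5% CO2; viability by CellTiter-Glo luminescence. Growth rate T/C % = 100×[(B−C)/(A−C)] using day-0 and final readings; GI50 interpolated from the two concentrations bracketing 50% growth.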

Assay [3] shares this test system. In words: Cell growth inhibition test using RAMOS cell, MTT assay. Conditions: 50% growth inhibition concentration. The assay is classed as cell-based. In a few lines: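 Cells in RPMI1640 with 10% FBS were exposed to compound (DMSO ≤1%) for 3 days at 37° C, 5% CO2. Viability was read by MTT (4 h, formazan in DMSO, OD 540/660 nm) against a day-0 plate; GI50 was interpolated from T/C % growth rates.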
On the technique in general: Tetrazolium assays rely on reduction of a dye to a coloured formazan, in cell work by metabolically active cells.

Structures are written as SMILES.

T1 sequence (Q9Y230 whole entry): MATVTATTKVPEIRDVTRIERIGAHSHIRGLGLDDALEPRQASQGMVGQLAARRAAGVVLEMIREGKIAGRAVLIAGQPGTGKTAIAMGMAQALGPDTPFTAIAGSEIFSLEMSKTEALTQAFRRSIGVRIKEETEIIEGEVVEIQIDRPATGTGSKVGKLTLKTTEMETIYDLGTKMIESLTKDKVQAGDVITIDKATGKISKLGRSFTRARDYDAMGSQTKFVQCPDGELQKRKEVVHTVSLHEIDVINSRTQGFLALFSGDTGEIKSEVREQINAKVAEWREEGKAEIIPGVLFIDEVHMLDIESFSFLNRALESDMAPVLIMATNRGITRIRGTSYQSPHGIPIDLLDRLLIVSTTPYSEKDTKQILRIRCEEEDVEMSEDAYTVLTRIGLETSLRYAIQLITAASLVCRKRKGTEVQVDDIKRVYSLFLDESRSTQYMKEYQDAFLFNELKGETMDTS
T1 sequence (Q9Y265 whole entry): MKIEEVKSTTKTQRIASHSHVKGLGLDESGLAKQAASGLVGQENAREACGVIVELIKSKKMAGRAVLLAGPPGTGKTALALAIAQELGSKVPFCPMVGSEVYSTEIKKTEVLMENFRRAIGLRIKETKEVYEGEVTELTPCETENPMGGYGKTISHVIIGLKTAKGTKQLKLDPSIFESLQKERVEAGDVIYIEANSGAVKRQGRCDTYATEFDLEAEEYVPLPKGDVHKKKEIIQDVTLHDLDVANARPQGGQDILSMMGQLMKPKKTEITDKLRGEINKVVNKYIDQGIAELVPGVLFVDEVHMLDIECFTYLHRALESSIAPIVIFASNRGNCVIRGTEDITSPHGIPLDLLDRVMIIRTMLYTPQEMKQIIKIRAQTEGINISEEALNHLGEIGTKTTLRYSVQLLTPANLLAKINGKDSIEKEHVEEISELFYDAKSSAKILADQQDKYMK

Turning to `CCOc1ccc(Cl)cc1C(=O)NCC(C)(C)CC(=O)Nc1c(CCN(C)C)n(C)n(-c2ccccc2)c1=O` [Example 11, 5-Chloro-N-[4-({5-[2-(dimethylamino)ethyl]-1-methyl-3-oxo-2-phenyl-2,3-dihydro-1H-pyrazol-4-yl}amino)-2,2-dimethyl-4-oxobutyl]-2-ethoxybenzamide], the IC50 in assay [1] amounted to 53 nM. The GI50 in assay [2] is 150 nM; in assay [3] it was 53 nM.

In assay [1], `CCOc1cc(F)c(Cl)cc1C(=O)NCC(C)(C)CC(=O)Nc1c(CCN(C)C)n(C)n(-c2ccccc2)c1=O` [Example 12, 5-Chloro-N-[4-({5-[2-(dimethylamino)ethyl]-1-methyl-3-oxo-2-phenyl-2,3-dihydro-1H-pyrazol-4-yl}amino)-2,2-dimethyl-4-oxobutyl]-2-ethoxy-4-fluorobenzamide] gave an IC50 of 62 nM. Moreover, the GI50 in assay [2] stood at 140 nM; in assay [3], 35 nM.

Take `CCOc1ncc(Cl)cc1C(=O)NCC(C)(C)CC(=O)Nc1c(CCN(C)C)n(C)n(-c2ccccc2)c1=O` [Example 13, 5-Chloro-N-[4-({5-[2-(dimethylamino)ethyl]-1-methyl-3-oxo-2-phenyl-2,3-dihydro-1H-pyrazol-4-yl}amino)-2,2-dimethyl-4-oxobutyl]-2-ethoxypyridine-3-carboxamide]: in assay [1], the IC50 came to 82 nM. The GI50 was found to be 610 nM in assay [2] and 110 nM in assay [3].

Molecule `Cc1cc2cc(Cl)cc(C(=O)NCC(C)(C)CC(=O)Nc3c(CCN(C)C)n(C)n(-c4ccccc4)c3=O)c2o1` [Example 14, 5-Chloro-N-[4-({5-[2-(dimethylamino)ethyl]-1-methyl-3-oxo-2-phenyl-2,3-dihydro-1H-pyrazol-4-yl}amino)-2,2-dimethyl-4-oxobutyl]-2-methylbenzofuran-7-carboxamide] came in with a concentration for half-maximal inhibition (IC50) in assay [1] of 41 nM. Moreover, the GI50 worked out at 130 nM in assay [2] and 32 nM in assay [3].

Molecule `CCOc1ccc(Cl)cc1C(=O)NCC(C)(C)CC(=O)Nc1c(CCN(C)CC(F)(F)F)n(C)n(-c2ccccc2)c1=O` [Example 39, 5-Chloro-N-{2,2-dimethyl-4-[(1-methyl-5-{2-[methyl(2,2,2-trifluoroethyl)amino]ethyl}-3-oxo-2-phenyl-2,3-dihydro-1H-pyrazol-4-yl)amino]-4-oxobutyl}-2-ethoxybenzamide] showed a half-inhibitory concentration (IC50) in assay [1] of 82 nM. Further, the GI50 was found to be 240 nM in assay [2] and 99 nM in assay [3].

`CCOc1ncc(Cl)cc1C(=O)NCC(C)(C)CC(=O)Nc1c(C)n(C)n(-c2cccc(C)n2)c1=O` [Example 153, 5-Chloro-N-(4-{[1,5-dimethyl-2-(6-methyl-2-pyridyl)-3-oxo-2,3-dihydro-1H-pyrazol-4-yl]amino}-2,2-dimethyl-4-oxobutyl)-2-ethoxypyridine-3-carboxamide] came in with an IC50 in assay [1] of 98 nM. This molecule showed a GI50 in assay [3] of 210 nM.

Take `Cc1cccc(-n2c(=O)c(NC(=O)CC(C)(C)CC(=O)Nc3cc(Cl)ccc3OC(F)(F)F)c(C)n2C)n1` [Example 154, N-[5-Chloro-2-(trifluoromethoxy)phenyl]-N′-[1,5-dimethyl-2-(6-methyl-2-pyridyl)-3-oxo-2,3-dihydro-1H-pyrazol-4-yl]-3,3-dimethylpentanediamide]: the IC50 in assay [1] is 82 nM. The same molecule showed a concentration for 50% growth inhibition (GI50) in assay [3] of 110 nM.

As for `CCOc1ccc(Cl)cc1C(=O)NCC(C)(C)CC(=O)Nc1c(C)n(C(C)C)n(-c2ccccn2)c1=O` [Example 156, 5-Chloro-2-ethoxy-N-(4-{[1-isopropyl-5-methyl-3-oxo-2-(2-pyridyl)pyrazol-4-yl]amino}-2,2-dimethyl-4-oxobutyl)benzamide], half-maximal inhibition in assay [1] (IC50) was put at 48 nM. Moreover, it took 100 nM to inhibit growth in assay [3] by half (GI50).

In assay [1], `COc1ccc(Cl)cc1NC(=O)CC(C)(C)CC(=O)Nc1c(C)n(C)n(C2CCCCC2)c1=O` [Example 160, N-(5-Chloro-2-methoxyphenyl)-N′-(1-cyclohexyl-2,3-dimethyl-5-oxopyrazol-4-yl)-3,3-dimethylpentanediamide] had an IC50 of 200 nM. In assay [3], this molecule showed a 50% growth inhibitory concentration (GI50) of 990 nM.

One may read the IC50 as the concentration needed to halve the response being measured. For orientation: GI50 means the concentration at which growth is held to half of that of the control.
